Measured values published in patent publication US20230128730A1, “OXYGEN IMPERMEABLE PORPHYRIN PHOTOSENSITIZER FILM COMPOSITION FOR APPLICATION TO PLANTS” (SUNCOR ENERGY INC., priority 2020, published 2023).
Counter-ions that a name gives are not always drawn. Like-named read-outs stand apart in the source and are kept apart here.

Legend:
[1] = Method A: photostability in a non-hydrated state (solid state), dried films under LED light; format: physicochemical
Description: Fifty microlitres of each formulation was pipetted into 12 wells of a 96-well clear-bottom black microplate (Thomas Scientific, Swedesboro, N.J.) and dried into thin films using a dehydrator (Gourmia GFD1680) at a temperature of 45° C. for 3 h. At the beginning of the experiment, the microplate was placed under a Heliospectra RX30 LED light array (Heliospectra, San […], Calif.). The LED array was adjusted such that the microplates received on average 1300 μmol/m^2/s of light intensity. The microplate was tightly covered with aluminum foil and at select intervals peeled back to irradiate films with either 0 h, 24 h, 48 h or 72 h of light. […] An absorbance spectral scan was conducted on the microplate (350-750 nm) using a plate reader (Spectramax M2E, Molecular Devices, San Jose, Calif.) and the peak intensity was monitored at 24 h, 48 h and/or 72 h timepoints and compared with the corresponding 0 h timepoint to determine the degree of photodegradation. The % photosensitizer remaining after irradiation was calculated using the following equation: [formula] where Abst is the absorbance peak of the sample receiving t hours of light exposure; Abs0 is the absorbance peak of the sample receiving no light exposure. All data is expressed as mean±standard deviation.

[2] = Method B: photostability in solution (liquid state) under LED light; format: physicochemical
Description: Fifty microlitres of each formulation was pipetted into 12 wells of a 96-well clear-bottom black microplate (Thomas Scientific, Swedesboro, N.J.), followed by the addition of 50 μL dH2O. The sample was sealed with a microplate clear adhesive film to minimize water evaporation. At the beginning of experiment, the microplate was placed under a Heliospectra RX30 LED light array (Heliospectra, San […], Calif.). The LED array was adjusted such that the microplates received on average 1300 μmol/m^2/s of light intensity. […] The % photosensitizer remaining after irradiation was calculated using the following equation: [formula] where Abst is the absorbance peak of the sample receiving t hours of light exposure; Abs0 is the absorbance peak of the sample receiving no light exposure. All data is expressed as mean±standard deviation.

[3] = test system: Colletotrichum orbiculare ATC20767 (Cgm); assay: Control of Colletotrichum orbiculare on Nicotiana benthamiana, film-forming formulations applied 48 h before inoculation; format: in vivo; details: host Nicotiana benthamiana, PVOH 89 kDa, >99% hydrolysis
Description: Control of the fungal plant pathogen Colletotrichum orbiculare ATC20767 (Cgm) on the host plant Nicotiana benthamiana following treatment with formulations containing Magnesium chlorophyllin, sodium salt with hydrogel polymer, polyvinylalcohol 89 kDa (99%+hydrolysis) and phenolic antioxidant vanillin were assessed. Treatments were applied to N. benthamiana plants approximately 48 h prior to inoculation to simulate photodegradation on a leaf surface. Subsequently, with a spore suspension of Cgm was applied to the leaves. Plants were then exposed to light for a 24-hour period followed by dark incubation until disease symptoms were evident on the water-treated control plants. Once disease symptoms were evident, lesions were counted, and leaf area measured in order to determine the number of lesions/cm^2 leaf area. Four replicate plants were used per treatment and plants were randomized under the light source. […]
Control of the fungal plant pathogen Colletotrichum orbiculare ATC20767 (Cgm) on the host plant Nicotiana benthamiana following treatment with formulations containing Magnesium chlorophyllin, sodium salt with hydrogel polymer, polyvinylalcohol 89 kDa (99%+hydrolysis) and phenolic antioxidant tannic acid were assessed. […] Once disease symptoms were evident, lesions were counted, and leaf area measured in order to determine the number of lesions/cm^2 leaf area. […]

[4] = test system: Pseudomonas syringae v. tabacii; assay: Inhibition of P. syringae in host plant N. benthamiana by film-forming compositions; format: in vivo; details: host Nicotiana benthamiana, PVOH 89 kDa, >99% hydrolysis
Description: Two days prior to inoculation, chemical treatments were applied to N. benthamiana plants at the 5-6 leaf stage until run off using a handheld spray bottle delivering a fine spray. Plants sprayed with water were used for Control. Immediately after treatment, plants were randomly placed on a shelf and exposed to LED lights emitting approximately 450 μmol/m2/s photo-synthetically active radiation (PAR) for a 12 h light/12 h dark photoperiod. For inoculation, Pst from a glycerol stock was cultured on Tryptic Soy Agar (TSA) and incubated overnight at 30° C. Bacterial cells were collected from the overnight culture, suspended in de-ionized water and diluted to 1×10^8 CFU/ml followed by the addition of 0.02% (v/v) Silwet L-77. Inoculum was then applied to plants until runoff and the plants covered with transparent plastic domes to maintain 100% relative humidity.
Inoculated plants were randomly placed on a shelf in the Growth room which was maintained at 24° C., and were exposed to a combination of fluorescent and LED lights emitting approximately 250 μmol/m^2/s PAR for an 16 h light/8 h dark photoperiod for 7 days. Entire plants were assessed for disease severity using rating scale of 0-100%. Disease symptoms included yellow lesions, discoloration on foliage, leaf deformation and stunted growth. Four replications per treatment were used in the experiment.

[5] = Thermal stability of MgChln, 2 weeks at 54° C.; format: physicochemical; details: in dH2O, wrapped in aluminum foil, mean ± SD
Description: These samples were wrapped in aluminum foil and stored in a 54° C. oven for a period of 2 weeks. After the 2-week period, the samples were taken out of the 54° C. oven or -20° C. freezer and assayed using the UV-Visible plate reader (Spectramax M2E, Molecular Devices, San Jose, Calif.) with 12 technical replicates per sample. The degradation of […] as a result of storage at elevated temperature was determined by calculating the % photosensitizer remaining using the following equation: [formula] where Abst is the absorbance peak of the sample after incubation for 2 weeks at 54° C.; Abs0 is the absorbance peak of the sample at the start of experiment without being stored at 54° C. All data is expressed as mean±standard deviation.

Sclerotinia homoeocarpa [6] = assay: Broth protocol: control of dollar spot fungus with modified chlorins; format: cell-based; details: for inhibition at 10 µM / inhibition at 100 µM: Clarireedia homoeocarpa; for Inhibition, % (Dark) / Inhibition, % (Light): Broth data; for Inhibition, % (Light): light 1 hour, about 1000 μmol/m2/s PAR
Description: Broth protocol: control of dollar spot fungus (Sclerotinia homoeocarpa) with modified chlorins was assessed. Treatments were prepared in Phosphate Buffered Saline (PBS) in 24 well plates (in duplicates for light vs. dark incubation) at desired concentrations. Then, a 5 mm diameter plug of a Sclerotinia homoeocarpa isolate (3 isolates total tested) was inoculated into the PBS and incubated at 21° C. in the dark for 2 hours. After 2 hours, one of the 24 well plates (with isolates in triplicate) was left in the dark and one 24 well plate was placed under illumination for 1 hour (all at 21° C.). Following illumination, fungal plugs were removed from PBS, blotted dry on sterile filter paper and transferred to non-amended Potato Dextrose Agar (PDA). Radial growth of the fungus was monitored daily until the growth of S. homoeocarpa reached the edge of the Petri-dish. Illumination was provided by LED lights emitting about 1000 μmol/m2/s photosynthetically active radiation (PAR).

Sclerotinia homoeocarpa [7] = assay: Agar protocol: control of dollar spot fungus with modified Ce6; format: cell-based; details: Agar data, 10 uM
Description: Agar protocol: control of dollar spot fungus (Sclerotinia homoeocarpa) with modified Ce6 was assessed. Treatments were amended into Potato Dextrose Agar (PDA) at desired concentrations. Then, a 5 mm diameter plug of a Sclerotinia homoeocarpa isolate (3 isolates total tested) was inoculated into the center of the amended Petri-dish and incubated at 21° C. in the dark for 24 hours. After 24 hours, one set of Petri-dishes (in triplicate) was left in the dark and one set was placed under illumination for the remainder of the experiment (all at 21° C.). Radial growth of the fungus was monitored daily until the growth of S. homoeocarpa on non-amended PDA reaches the edge of the Petri-dish. Illumination was provided by fluorescent lights emitting about 180 μmol/m2/s photosynthetically active radiation (PAR).

[8] = test system: Pseudomonas syringae pv. tabaci; assay: In vitro photodynamic inactivation of Pseudomonas syringae pv. tabaci with modified Ce6; format: cell-based
Description: Experiments were conducted to evaluate control of the gram-negative bacterial plant pathogen Pseudomonas syringae pv. tabaci with modified Ce6. Treatments were prepared in Phosphate Buffered Saline (PBS) in 96 well plates at desired concentrations. A bacterial suspension was inoculated into the PBS and incubated at 28° C. in the dark for 30 min. After 30 min, the 96 well plate was placed under illumination for 1 hour (at 21° C.). A separate plate prepared at the same time was kept in the dark without illumination and served as dark control. Following illumination, bacterial suspensions were serially diluted and 10 μL of each dilution was spread uniformly on Tryptic Soy Agar (TSA) plates and placed in the dark in an incubator at 28° C. for 48 hours. After 48 hours, bacterial colonies were counted and results were log transformed (log colony forming units (CFU)/mL). The relative inactivation was determined by taking the difference between log CFU(PBS control) and log CFU (treatments). Sample Illumination was provided by LED lights (Heliospectra RX30) emitting about 1000 μmol/m^2/s photosynthetically active radiation (PAR).

[9] = test system: Kentucky bluegrass (Poa pratensis); assay: Kentucky bluegrass tolerance to salt stress (turf quality); format: in vivo; details: 170 mM NaCl, 2 salt applications; scale of 1-9 (1=dead, 9=healthy); untreated control 5
Description: Kentucky bluegrass (Poa pratensis) was grown under greenhouse conditions for ˜3 weeks. After 3 weeks, plants were sprayed with formulations and allowed to sit for 24 hours, after which the pots were placed in a 170 mM NaCl solution until the soil was saturated. The salt application was repeated again 7 days later for a total of 2 salt applications. Salinity stress was evaluated based on a turf quality scale of 1-9; where 1=dead, brown turf; 6=minimally acceptable turf quality (based on standards for golf courses or sports fields); and 9=dense, dark green turf (healthy). Data are average of 5 replicates.

[10] = 1 h, read-out: Inhibition, % (Light)
[11] = various tetrapyrroles, PVOH 89 kDa, >99% hydrolysis and tannic acid, 72 h simulated sunlight
[12] = various tetrapyrroles, PVOH 89 kDa, >99% hydrolysis and tannic acid, 6 h simulated light

C=CC1=C(C)C2=CC3=NC(=C(CC(=O)[O-])C4=NC(=C(C)C4=C([O-])[O-])C=c4[n-]c(c(C)c4CC)=CC1=N2)C(CCC(=O)[O-])C3C.[H+].[H+].[H+].[Mg+2] (stereo not drawn) [MgChln, Magnesium chlorin e6]
% photosensitizer remaining at 72 h (solid state) ([1]; MgChln, PVOH 89 kDa, >99% hydrolysis, tannic acid, adjuvants, 72 h simulated sunlight): 41.2 ± 2.9% | % photosensitizer remaining at 72 h (solid state) ([1]; MgChln, PVOH 89 kDa, >99% hydrolysis, various antioxidants, 72 h simulated sunlight): 31.6 ± 2.3% | % photosensitizer remaining at 72 h (solid state) ([1]; MgChln, PVOH 89 kDa, >99% hydrolysis, dried film, 72 h light irradiation, mean ± SD): 46.0 ± 1.8% | % photosensitizer remaining at 72 h (solid state) ([1]; MgChln, PVOH 146 kDa, >99% hydrolysis, 72 h simulated sunlight, mean ± SD): 29.1 ± 2% | % photosensitizer remaining at 72 h (solid state) ([1]; MgChln, PVOH of varied molecular weight and degree of hydrolysis, 72 h simulated sunlight, mean ± SD): 45.2 ± 7.1% | % photosensitizer remaining at 72 h (solid state) ([1]; MgChln, various film-forming polymers and tannic acid, 72 h simulated sunlight): 42.4 ± 2.5% | % photosensitizer remaining at 6 h (liquid state) ([2]; MgChln, PVOH 89 kDa, >99% hydrolysis, tannic acid, adjuvants, 6 h simulated light): 31.5 ± 5.3% | % photosensitizer remaining at 6 h (liquid state) ([2]; MgChln, PVOH 89 kDa, >99% hydrolysis, various antioxidants, 6 h simulated light): 20.6 ± 3.9% | % photosensitizer remaining at 6 h (liquid state) ([2]; MgChln, PVOH 146 kDa, >99% hydrolysis, 6 h simulated sunlight, mean ± SD): 35.2 ± 2.1% | % photosensitizer remaining at 6 h (liquid state) ([2]; MgChln, PVOH of varied molecular weight and degree of hydrolysis, 6 h simulated sunlight, mean ± SD): 44.6 ± 9.6% | % photosensitizer remaining at 6 h (liquid state) ([2]; MgChln, various film-forming polymers and tannic acid, 6 h): 27.5 ± 1.8% | % inhibition ([3]; applied about 48 h prior to inoculation): 76% | % Disease inhibition ([3]; sprayed films irradiated 48 h prior to inoculation with fungal spores): 95.1% | % Disease inhibition ([4]; relative to water control): 45.3% | Disease severity, % Mean ([4]; sprayed two days prior to inoculation, rated 7 days after, scale 0-100%, control 80): 43.8% | % Photosensitizer remaining [5]: 62 ± 7%

C=Cc1c(C)c2cc3nc(c(CC(=O)NCCOP(=O)(O)O)c4[nH]c(cc5nc(cc1[nH]2)C(C)=C5CC)c(C)c4C(=O)O)C(CCC(=O)O)C3C (stereo not drawn) [Ce6-mono-EP^15 amide octylammonium salt]
inhibition at 10 µM (Sclerotinia homoeocarpa [6]; [10]): 58% | inhibition at 100 µM (Sclerotinia homoeocarpa [6]; [10]): 71% | inhibition at 10 µM (Sclerotinia homoeocarpa [6]; read-out: Inhibition, % (Dark)): 3% | inhibition at 100 µM (Sclerotinia homoeocarpa [6]; read-out: Inhibition, % (Dark)): -5%

Chlorin e6, trisodium salt [Ce6Na3, reference compound]
% photosensitizer remaining at 72 h (solid state) [1, 11]: 84.2 ± 7^ % | % photosensitizer remaining at 6 h (liquid state) [2, 12]: 19.4 ± 0.5% | Inhibition, % (Dark) (Sclerotinia homoeocarpa [7]; dark): 26% | Inhibition, % (Light) (Sclerotinia homoeocarpa [7]; light about 180 μmol/m2/s PAR): 74% | Inhibition, % (Dark) (Sclerotinia homoeocarpa [6]; 10 uM): −4% | Inhibition, % (Light) (Sclerotinia homoeocarpa [6]; 10 uM): 53% | Inhibition, % (Dark) (Sclerotinia homoeocarpa [6]; 100 uM): 16% | Inhibition, % (Light) (Sclerotinia homoeocarpa [6]; 100 uM): 66% | Relative Inactivation (log[CFUcontrol mL^−1] − log[CFUtreatment mL^−1]), Dark ([8]; dark control plate): −0.03 ± 0.13 log CFU mL^−1 | Relative Inactivation (log[CFUcontrol mL^−1] − log[CFUtreatment mL^−1]), Light ([8]; illumination 1 hour, about 1000 μmol/m^2/s PAR, where no colonies remained value set to 1 CFU/mL): 0.39 ± 0.29 log CFU mL^−1 | Turf Quality [9]: 6

Aluminum chlorin e6 [Aluminum Ce6Na3]
% photosensitizer remaining at 72 h (solid state) [1, 11]: 91.4 ± 5.5% | % photosensitizer remaining at 6 h (liquid state) [2, 12]: 3.9 ± 0.2%
